This test deals with tubulin. Nature of the test: Tubulin binding assay (Tubulin Assay), method of Parness et al. The note with it: compared to taxol and taxotere.
For `CC(=O)O[C@H]1C(=O)[C@@]2(C)[C@H]([C@H](OC(=O)c3ccccc3)[C@]3(O)C[C@H](OC(=O)[C@H](O)[C@@H](NC(=O)c4ccc(Cl)cc4)c4ccc(F)cc4)C(C)=C1C3(C)C)[C@]1(OC(C)=O)CO[C@@H]1C[C@@H]2O` [Example 18, N-debenzoyl-N-(4-chlorobenzoyl)-3'-desphenyl-3'-(4-fluorophenyl) taxol], the “Tubulin Assay Init. Peak” value stood at 109 and the “Tubulin Assay Rel. Rate” value was 92.
Consider `CC(=O)O[C@H]1C(=O)[C@@]2(C)[C@H]([C@H](OC(=O)c3ccccc3)[C@]3(O)C[C@H](OC(=O)[C@H](O)[C@@H](NC(=O)c4ccc(Br)cc4)c4ccc(F)cc4)C(C)=C1C3(C)C)[C@]1(OC(C)=O)CO[C@@H]1C[C@@H]2O` [Example 19, N-debenzoyl-N-(4-bromobenzoyl)-3'-desphenyl-3'-(4-fluorophenyl) taxol], for which the “Tubulin Assay Init. Peak” value is recorded as 88 and the “Tubulin Assay Rel. Rate” value was found to be 100.
As for `CC(=O)O[C@H]1C(=O)[C@@]2(C)[C@H]([C@H](OC(=O)c3ccccc3)[C@]3(O)C[C@H](OC(=O)[C@H](O)[C@@H](NC(=O)c4ccc(C)cc4)c4ccc(F)cc4)C(C)=C1C3(C)C)[C@]1(OC(C)=O)CO[C@@H]1C[C@@H]2O` [Example 20, N-debenzoyl-N-(4-methylbenzoyl)-3'-desphenyl-3'-(4-fluorophenyl) taxol], the “Tubulin Assay Init. Peak” value was found to be 85 and the “Tubulin Assay Rel. Rate” value is on record as 98.
`COc1ccc([C@H](NC(=O)c2ccc(F)cc2)[C@@H](O)C(=O)O[C@H]2C[C@@]3(O)[C@@H](OC(=O)c4ccccc4)[C@@H]4[C@]5(OC(C)=O)CO[C@@H]5C[C@H](O)[C@@]4(C)C(=O)[C@H](OC(C)=O)C(=C2C)C3(C)C)cc1` [Example 21, N-debenzoyl-N-(4-fluorobenzoyl)-3'-desphenyl-3'-(4-methoxyphenyl) taxol]: the “Tubulin Assay Init. Peak” value is on record as 45 and the “Tubulin Assay Rel. Rate” value came to 81.
With `COc1ccc([C@H](NC(=O)c2ccc(C)cc2)[C@@H](O)C(=O)O[C@H]2C[C@@]3(O)[C@@H](OC(=O)c4ccccc4)[C@@H]4[C@]5(OC(C)=O)CO[C@@H]5C[C@H](O)[C@@]4(C)C(=O)[C@H](OC(C)=O)C(=C2C)C3(C)C)cc1` [Example 22, N-debenzoyl-N-(4-methylbenzoyl)-3'-desphenyl-3'-(4-methoxyphenyl) taxol], the “Tubulin Assay Init. Peak” value is on record as 77 and the “Tubulin Assay Rel. Rate” value is listed as 96.
On the same counts, the results for `CC(=O)O[C@H]1C(=O)[C@@]2(C)[C@H]([C@H](OC(=O)c3ccccc3)[C@]3(O)C[C@H](OC(=O)[C@H](O)[C@@H](NC(=O)c4ccc(F)cc4)c4ccc(Cl)cc4)C(C)=C1C3(C)C)[C@]1(OC(C)=O)CO[C@@H]1C[C@@H]2O` [Example 23, N-debenzoyl-N-(4-fluorobenzoyl)-3'-desphenyl-3'-(4-chlorophenyl) taxol] are 63 and 88.
As to `CC(=O)O[C@H]1C(=O)[C@@]2(C)[C@H]([C@H](OC(=O)c3ccccc3)[C@]3(O)C[C@H](OC(=O)[C@H](O)[C@@H](NC(=O)c4ccc(Cl)cc4)c4ccc(Cl)cc4)C(C)=C1C3(C)C)[C@]1(OC(C)=O)CO[C@@H]1C[C@@H]2O` [Example 24, N-debenzoyl-N-(4-chlorobenzoyl)-3'-desphenyl-3'-(4-chlorophenyl) taxol], the “Tubulin Assay Init. Peak” value was 35 and the “Tubulin Assay Rel. Rate” value amounted to 60.
As to `CC(=O)O[C@H]1C(=O)[C@@]2(C)[C@H]([C@H](OC(=O)c3ccccc3)[C@]3(O)C[C@H](OC(=O)[C@H](O)[C@@H](NC(=O)c4ccc(Br)cc4)c4ccc(Cl)cc4)C(C)=C1C3(C)C)[C@]1(OC(C)=O)CO[C@@H]1C[C@@H]2O` [Example 25, N-debenzoyl-N-(4-bromobenzoyl)-3'-desphenyl-3'-(4-chlorophenyl) taxol], the “Tubulin Assay Init. Peak” value came to 60 and the “Tubulin Assay Rel. Rate” value is reported as 83.
As to `CC(=O)O[C@H]1C(=O)[C@@]2(C)[C@H]([C@H](OC(=O)c3ccccc3)[C@]3(O)C[C@H](OC(=O)[C@H](O)[C@@H](NC(=O)c4ccc(C(C)(C)C)cc4)c4ccc(Cl)cc4)C(C)=C1C3(C)C)[C@]1(OC(C)=O)CO[C@@H]1C[C@@H]2O` [Example 26, N-debenzoyl-N-(4-t-butylbenzoyl)-3'-desphenyl-3'-(4-chlorophenyl) taxol], the “Tubulin Assay Init. Peak” value is recorded as 13 and the “Tubulin Assay Rel. Rate” value stood at 23.
For the molecule `CC(=O)O[C@H]1C(=O)[C@@]2(C)[C@H]([C@H](OC(=O)c3ccccc3)[C@]3(O)C[C@H](OC(=O)[C@H](O)[C@@H](NC(=O)c4ccc(C(C)(C)C)cc4)c4ccc(F)cc4)C(C)=C1C3(C)C)[C@]1(OC(C)=O)CO[C@@H]1C[C@@H]2O` [Example 27, N-debenzoyl-N-(4-t-butylbenzoyl)-3'-desphenyl-3'-(4-fluorophenyl) taxol], the “Tubulin Assay Init. Peak” value is given as 55 and the “Tubulin Assay Rel. Rate” value is listed as 82.
For `COc1ccc(C(=O)N[C@@H](c2ccc(F)cc2)[C@@H](O)C(=O)O[C@H]2C[C@@]3(O)[C@@H](OC(=O)c4ccccc4)[C@@H]4[C@]5(OC(C)=O)CO[C@@H]5C[C@H](O)[C@@]4(C)C(=O)[C@H](OC(C)=O)C(=C2C)C3(C)C)cc1` [Example 28, N-debenzoyl-N-(4-methoxybenzoyl)-3'-desphenyl-3'-(4-fluorophenyl) taxol], the “Tubulin Assay Init. Peak” value amounted to 106 and the “Tubulin Assay Rel. Rate” value came to 97.
On the same counts, the results for `COc1ccc([C@H](NC(=O)c2ccc(Cl)cc2)[C@@H](O)C(=O)O[C@H]2C[C@@]3(O)[C@@H](OC(=O)c4ccccc4)[C@@H]4[C@]5(OC(C)=O)CO[C@@H]5C[C@H](O)[C@@]4(C)C(=O)[C@H](OC(C)=O)C(=C2C)C3(C)C)cc1` [Example 29, N-debenzoyl-N-(4-chlorobenzoyl)-3'-desphenyl-3'-(4-methoxyphenyl) taxol] are 42 and 72.
With `COc1ccc([C@H](NC(=O)c2ccc(Br)cc2)[C@@H](O)C(=O)O[C@H]2C[C@@]3(O)[C@@H](OC(=O)c4ccccc4)[C@@H]4[C@]5(OC(C)=O)CO[C@@H]5C[C@H](O)[C@@]4(C)C(=O)[C@H](OC(C)=O)C(=C2C)C3(C)C)cc1` [Example 30, N-debenzoyl-N-(4-bromobenzoyl)-3'-desphenyl-3'-(4-methoxyphenyl) taxol], the “Tubulin Assay Init. Peak” value is given as 44 and the “Tubulin Assay Rel. Rate” value turned out to be 70.
Regarding `COc1ccc([C@H](NC(=O)c2ccc(C(C)(C)C)cc2)[C@@H](O)C(=O)O[C@H]2C[C@@]3(O)[C@@H](OC(=O)c4ccccc4)[C@@H]4[C@]5(OC(C)=O)CO[C@@H]5C[C@H](O)[C@@]4(C)C(=O)[C@H](OC(C)=O)C(=C2C)C3(C)C)cc1` [Example 31, N-debenzoyl-N-(4-t-butylbenzoyl)-3'-desphenyl-3'-(4-methoxyphenyl) taxol], the “Tubulin Assay Init. Peak” value turned out to be 24 and the “Tubulin Assay Rel. Rate” value was 44.
On the same counts, the results for `COc1ccc(C(=O)N[C@@H](c2ccc(OC)cc2)[C@@H](O)C(=O)O[C@H]2C[C@@]3(O)[C@@H](OC(=O)c4ccccc4)[C@@H]4[C@]5(OC(C)=O)CO[C@@H]5C[C@H](O)[C@@]4(C)C(=O)[C@H](OC(C)=O)C(=C2C)C3(C)C)cc1` [Example 32, N-debenzoyl-N-(4-methoxybenzoyl)-3'-desphenyl-3'-(4-methoxyphenyl) taxol] are 51 and 81.
Turning to `CC(=O)O[C@H]1C(=O)[C@@]2(C)[C@H]([C@H](OC(=O)c3ccccc3)[C@]3(O)C[C@H](OC(=O)[C@H](O)[C@@H](NC(=O)c4ccccc4)c4ccccc4)C(C)=C1C3(C)C)[C@]1(OC(C)=O)CO[C@@H]1C[C@@H]2O` [Taxol, taxol, reference compound], the “Tubulin Assay Init. Peak” value came out at 100 and the “Tubulin Assay Rel. Rate” value stood at 98.
Turning to `CC(=O)O[C@@]12CO[C@@H]1C[C@H](O)[C@@]1(C)C(=O)[C@H](O)C3=C(C)[C@@H](OC(=O)[C@H](O)[C@@H](NC(=O)OC(C)(C)C)c4ccccc4)C[C@@](O)([C@@H](OC(=O)c4ccccc4)[C@H]21)C3(C)C` [Taxotere, taxotere, reference compound], the “Tubulin Assay Init. Peak” value is reported as 100.

The values are drawn from patent US5250683A, “Certain substituted taxanes and pharmaceutical compositions containing them” (Florida State University, priority 1992, dated 1993).
